Data reported in patent publication US12029715B2, “Precursor compounds for providing retinoids of the vitamin A5 pathway and uses thereof” (UNIVERSITY OF DEBRECEN, priority 2015, dated 2024).
Entries after “also recorded” stand apart in the source; their conditions may differ.

Experiments:
Rbp1−/− and Rxrγ−/− mice = assay: Y-maze spontaneous alternation; type: in vivo, mouse; conditions: 5-6 hours prior to testing
Experimental: The Y-maze apparatus and the procedure were as previously described (Wietrzych et al., 2005). Briefly, each mouse was placed at the end of one arm and allowed to explore freely the apparatus for 5 min, with the experimenter out of the animal's sight. Spontaneous alternation performance (SAP) was assessed visually by scoring the pattern of entries into each arm and expressed as a percentage of total number of entries, discounting the first two visits. Total entries were scored as an index of ambulatory activity in the Y-maze, but none of tested mice had to be excluded due to low locomotor performance (score below 9 entries).
(§1) Vehicle treatments consisted of 3% ethanol and 3% DMSO solution in sunflower oil. Treatments were administered by intraperitoneal injections at volume/weight ratio 3 ml/kg between 8-10 am and 5-6 h before the test as previously validated (Wietrzych-Schindler M, 2011).

[1] = test system: Rbp1−/−, Rxrγ−/− and WT mice; assay: Delayed non-match to place (DNMTP) working memory task in the T-maze; type: in vivo, mouse; conditions: ITI of 6 min
Experimental: Behaviorally naïve groups of mice were tested in the DNMTP (delayed non-match to place) procedure in the T-maze according to a protocol previously described (Wietrzych et al., 2005), with modifications to facilitate pharmacological tests (Wietrzych-Schindler et al., 2011). Spontaneous alternation was evaluated in the Ymaze apparatus according to protocol described in detail below.
Specifically, in the present protocol, animals were first trained for 10 consecutive days with minimal inter-trial intervals (ITI) of about 15 sec, which was necessary to attain the criterion of 90% or more of correct choices during […] consecutive days (days 9-10). After this period ITI was increased semi-randomly by blocks of 3-6 min during 5 consecutive days (days 11-15 indicated) to determine “test ITI” for each animal, which was defined as the shortest ITI at which mice perform at chance level. From day 16 mice were tested using corresponding “test ITI” delays following vehicle injection on the day 16 (to test for the effect of vehicle alone) and following 9CDHROL (40 mg/kg) injection on day 17. Three mice were excluded from testing since their latency to choose the arm during the retention phase exceeded 3 min in more than one trial/day on three consecutive days (exclusion criterion). On the day 18 mice were again injected (IP) with 9CDHROL (40 mg/kg) and 9 hours later sacrificed for chemical analyses. Mice which received vehicle injections on three consecutive days were used as vehicle-treated controls for analyses of 9CDHROL metabolism. An additional group of 3 naïve mice was also injected with 9CDHROL (40 mg/kg) to test for 9CDHROL metabolism following acute treatment.
In this variant, animals were first trained for 9 consecutive days of with minimal inter-trial intervals (ITI) of about 15 sec, which was necessary to attain the criterion of 90% or more of correct choices during three consecutive days (days 7-9). After this period ITI was increased semi-randomly to 180, 360, 720 and for some WT mice also 1080 seconds so that each animal was tested 6 times with each interval during four consecutive days (days 10-13 indicated). From day 13 mice were tested only twice per week beginning with training session on day one (with minimal, 15 sec ITIs) and testing pharmacological treatments on the second day. Only one pharmacological treatment was tested every 7 days. To test pro-mnemonic activities of UVI2108 and (R)-9CDHRA inventors used a minimal ITI, at which mice performed at chance level (50%) and which was 6 min for the Rbp1−/− or Rxrγ−/− groups and 12 min for most WT mice with exception of two mice tested at 18 min. Four mice (two wild types and one of each knockout line), were excluded from testing since their latency to choose the arm during the retention phase exceeded 3 min in more than one trial/day on three consecutive days (exclusion criterion).
For behavioral analysis, 9CDHROL and 9CDHBC were dissolved in ethanol, and then mixed with sunflower oil, so that the final solution contained 3% ethanol. Vehicle treatments consisted of 3% ethanol solution in sunflower oil. For memory studies treatments with 9CDHRA were administered by intraperitoneal injections at volume/weight ratio 3 ml/kg at 7 am and 7 hours before the beginning of testing. For tests with animal model of chronic social defeat, different treatments were administered by intraperitoneal injections at volume/weight ratio 3 ml/kg at 10 mg/kg for each substance between 5-6 pm every second day of stress protocol immediately after the stress session starting from day 1 of the stress protocol.
as §1

[2] = test system: Rbp1−/−, Rxrγ−/− and WT mice; assay: Forced swim test after acute treatment; type: in vivo, mouse; conditions: Rbp1−/− mice, acute i.p. treatment 5-6 h before the test
Experimental: (§2) The forced swim paradigm was carried out between 1 pm and 4 pm in a 3-litre glass beaker half-filled with water at 22-23° C. (the water depth was 17 cm). All mice were tested only once in this task. To this end, each mouse was lowered gently into the water and the time of immobility was scored during a 6-minute testing period. The mouse was judged immobile when it floated in an upright position and made only small movements to keep its head above the water. After 6 min, the mouse was taken out of the water, left to dry under a red light lamp and returned to its home cage. The immobility scores of each animal were used as an index of despair behavior.
as §1
as §2, with “paradigm (Dalvi and Lucki, 1999)” for “paradigm”, “2-litre” for “3-litre”

[3] = test system: human oligodendrocytes cell cultures; assay: Metabolic conversion in human oligodendrocytes cell culture (HPLC-MS); type: in vitro ADME; conditions: 10^−6M, n=3
Experimental: (§3) In a slight variant of the method, after reaching confluency of 80% cells were treated with 9CDHROL, 9CDH-retinyl ester (acetate, 9CDHROL-ES), 9CDHRA, 9CDH-retinoyl ester, (ethyl ester, 9CDHRA-ES), ATROL, 9CDHBC, 9CBC and ATBC at a concentration of 10^−6 M or ethanol at corresponding concentration was used as control vehicle treatment. Cells were harvested 18 hours later, centrifuged, weighted, frozen in liquid nitrogen and stored at −80° C. until analyses.
(§4) High performance liquid chromatography mass spectrometry (LC-MS) was carried out as described in Example 4.
9CDHRA levels including standard deviation in human oligodendrocytes cultures were assessed using HPLC-MS analysis after control treatment using ethanol (CTRL), as well as ATROL treatment (ATROL), 9CBC treatments (9CBC), ATBC treatments (ATBC), 9CDHBC treatment (9CDHBC), 9CDHROL treatments (9CDHROL), 9CDHROL-ester treatments (9CDHROL-ES), 9CDHRA treatments (9CDHRA) or 9CDHRA-ester treatments (9CDHRA-ES), each with 10^−6M concentration and n=3 (FIG. 14D).

[4] = Mouse oral supplementation, retinoid levels in serum, brain and liver (LC-MS); type: in vivo; conditions: mice
Experimental: For metabolic analyses ATROL, 9CDHROL, 9CDHBC and control solutions were prepared as described above. Single per os application of the dose of 40 mg/kg of each substance was used to treat mice in the evening and samples were collected 11 h later in the light protected conditions, weighted, frozen in liquid nitrogen and stored at −80° C. until analyses. Serum was prepared and immediately stored in brown vials at −80° C., till further analysis.
Accordingly, for sample preparation 100 mg of the material (if samples were under 100 mg, water was added up to the used standard weight: 100 mg) or 100 μl serum was diluted with a threefold volume of isopropanol, the tissues were minced by scissors, vortexed for 10 seconds, put in a ultrasonic bath for 5 minutes, shaken for 6 minutes and centrifuged at 13000 rpm in a Heraeus BIOFUGE Fresco at +4° C. […] The dried extracts were resuspended with 30 μl of methanol—MTBE (50-50) and transferred into the autosampler and 10 μl subsequently analysed.
Mouse brain samples were prepared according to the procedure described above. Briefly, after single per os application of the dose of 40 mg/kg of 9CDHROL (or other cited substances) in the evening mice were sacrificed after 11 hours and tissues samples including brain were dissected under light-protection conditions, weighted, frozen in liquid nitrogen and stored at −80° C. until analyses. Serum was prepared and immediately stored in brown vials at −80° C., till further analysis.
For mouse supplementation experiments we treated n=6 mice per os with 40 mg/kg bw 9CDHROL and 11 h after the treatment the mice were killed and blood, brain and liver was taken. After centrifugation of the drawn blood, serum was obtained.

[5] = test system: oligodendrocytes cell line 158N; assay: Metabolic conversion in mouse oligodendrocytes cell culture (LC-MS); type: in vitro ADME
Experimental: Normal immortalized oligodendrocytes cell line 158N was cultured as previously reported (Feutz et al., 2001). Expediently, cells were cultured in supplemented with 5% calf serum (Invitrogen, France). When cells attained 70% of confluency they were treated with 10^−2 M ethanol solution of one of the following compounds: 9CDHROL, 9CDHROL-acetate, 9CDHRA-ethyl ester. 9CDHRA and ethanol as controls, vehicle treatment. 18 h after treatment cells were collected in amber Eppendorf tubes and stored at −80° C. until analyses. Treatments and cell collection were carried out in light limited conditions to avoid photolysis of retinoids.
as §3, §4

[6] = per os 40 mg/kg, 11 h after treatment

SMILES | working memory in spontaneous alternation in the Y-maze (Rbp1−/− and Rxrγ−/− mice; Rbp1−/− mice, ATRA 5 mg/kg, UVI2108 1 mg/kg, MA 5 mg/kg, DHA 1 mg/kg, TTNPB 5 mg/kg) | working memory in spontaneous alternation in the Y-maze (Rbp1−/− and Rxrγ−/− mice; Rxrγ−/− mice, same doses) | working memory performance in DNMTP task ([1]; Rbp1−/− mice, acute treatment, (R)-9CDHRA 1 or 2 mg/kg) | working memory performance in DNMTP task ([1]; Rxrγ−/− mice) | immobility (despair) in the forced swim test [2] | 9CDHRA levels in cells after treatment (metabolism / accumulation) [3] | ATROL levels in mouse organs after treatment ([4]; oral gavage 40 mg/kg) | 9CDHRA levels in serum, brain and liver after treatment (conversion to 9CDHRA) [4, 6] | 9CDHROL levels in serum, brain and liver after treatment [4, 6] | ATROL levels in cells after treatment ([5]; 10^−6M) | 9CDHROL levels in cells after treatment ([5]; 10^−6 M, 18 hours) | conversion to 9CDHRA ([5]; data not shown)
CC1=C(/C=C/C(C)=C/C=C/C(C)=C/C(=O)O)C(C)(C)CCC1 [ATRA, all-trans-retinoic acid] | normalised; also recorded: pro-mnemonic effects | not | reversed memory deficits | remained ineffective | reduced significantly immobility time | – | – | – | – | – | – | –
CC1=C(/C=C/C(C)=C/C=C/C(C)=C/CO)C(C)(C)CCC1 [ATROL, all-trans-retinol, reference compound] | – | – | – | – | – | not converted to 9CDHRA | strongly and significantly increased ATROL levels | significantly increased levels in brain and liver | did not increase | strongly and significantly increased ATROL levels | no or just a weak increase; also recorded: weak significant increase | not converted to 9CDHRA
